Measured values published in EP4600243A2, “NOVEL BICYCLIC HETEROCYCLYL COMPOUNDS AND USE THEREOF” (Jeil Pharmaceutical Co., Ltd., priority 2022, dated 2024).

The compounds below were run against T1, protein-protein interaction between SOS1 and KRAS G12C (Homo sapiens, UniProt Q07889) (assay: KRAS::SOS1 HTRF binding analysis (KRAS G12C/SOS1 binding kit)). Conditions: compound at 0.1 uM.
T1 construct: purchased Cisbio 64KRASG12PEG
T1 sequence (Q07889 1-1333): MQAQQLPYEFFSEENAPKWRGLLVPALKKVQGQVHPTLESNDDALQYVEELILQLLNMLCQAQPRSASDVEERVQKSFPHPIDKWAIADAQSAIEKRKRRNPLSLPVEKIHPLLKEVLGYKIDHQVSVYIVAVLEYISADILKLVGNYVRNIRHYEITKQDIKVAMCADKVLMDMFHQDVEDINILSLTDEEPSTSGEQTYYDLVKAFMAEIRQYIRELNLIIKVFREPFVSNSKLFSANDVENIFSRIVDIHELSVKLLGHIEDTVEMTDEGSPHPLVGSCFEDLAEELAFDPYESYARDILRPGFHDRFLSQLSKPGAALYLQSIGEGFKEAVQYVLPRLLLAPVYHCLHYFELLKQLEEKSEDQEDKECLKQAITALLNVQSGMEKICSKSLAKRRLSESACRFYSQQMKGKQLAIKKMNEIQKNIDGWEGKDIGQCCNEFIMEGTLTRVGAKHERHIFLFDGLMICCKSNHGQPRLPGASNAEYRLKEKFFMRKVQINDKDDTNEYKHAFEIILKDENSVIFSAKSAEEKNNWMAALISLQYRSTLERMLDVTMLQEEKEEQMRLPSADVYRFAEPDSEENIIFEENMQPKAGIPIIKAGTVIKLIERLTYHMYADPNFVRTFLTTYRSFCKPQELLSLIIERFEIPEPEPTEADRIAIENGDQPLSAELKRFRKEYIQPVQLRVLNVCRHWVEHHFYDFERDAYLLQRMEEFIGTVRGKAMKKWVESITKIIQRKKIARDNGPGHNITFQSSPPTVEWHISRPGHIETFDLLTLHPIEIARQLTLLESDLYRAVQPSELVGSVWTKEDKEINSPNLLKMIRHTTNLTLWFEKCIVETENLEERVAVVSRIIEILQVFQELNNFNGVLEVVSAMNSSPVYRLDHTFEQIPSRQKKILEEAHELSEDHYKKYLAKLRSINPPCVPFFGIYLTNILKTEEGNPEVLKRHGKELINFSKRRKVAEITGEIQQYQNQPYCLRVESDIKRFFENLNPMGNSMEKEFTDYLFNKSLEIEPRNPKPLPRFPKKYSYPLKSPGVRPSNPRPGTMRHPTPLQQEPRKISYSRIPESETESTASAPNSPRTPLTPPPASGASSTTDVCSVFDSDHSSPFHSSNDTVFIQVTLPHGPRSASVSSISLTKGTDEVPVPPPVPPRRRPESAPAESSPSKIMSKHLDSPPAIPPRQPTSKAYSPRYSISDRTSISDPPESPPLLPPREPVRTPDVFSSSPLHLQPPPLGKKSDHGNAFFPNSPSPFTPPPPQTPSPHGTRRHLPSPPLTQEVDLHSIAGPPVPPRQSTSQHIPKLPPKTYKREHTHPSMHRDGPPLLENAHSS
Description: 1-1. KRAS::SOS1 HTRF binding analysis
An SOS1 inhibitory ability of the example compounds of the present invention was confirmed by identifying the effect of inhibiting a protein-protein interaction between SOS1 and KRAS G12C of the compounds according to examples of the present invention.
Specifically, a KRAS G12C/SOS1 binding kit (64KRASG12PEG, Cisbio, France) was purchased and used. 2 µℓ of Tag1-KRAS G12C and 2 µℓ of GTP were premixed and dispensed 4 µl each into a 384 well plate (6007290, PerkinElmer, USA). 2 µℓ of the compound and 4 µℓ of Tag2-SOS1 were placed and then 10 µℓ of premixed Anti-Tag1 XL665 antibody and Anti-Tag2 Tb cryptate antibody was dispensed to each well. The plates were sealed and allowed to react at room temperature for one hour and 40 minutes, and then 665 nm wavelength and 620 nm wavelength were measured using a HTRF® compatible reader (Synergy H4, BioTeK, USA), and the ratio of receptor and donor emission signals for each well was calculated as 665 nm/620 nm×10^4.
(+++: more than 70 to 100% inhibition, ++: more than 40 to 70% inhibition, +: 0 to 40% inhibition) [Table 4]
For `Cc1c([C@@H](C)Nc2cnnc3ccc(N4CC5(CN(C)C5)C4)cc23)cccc1C(F)(F)F` [Example 49, (R)-N-(1-(2-methyl-3-(trifluoromethyl)phenyl)ethyl)-6-(6-methyl-2,6-diazaspiro[3.3]heptan-2-yl)cinnolin-4-amine], the inhibition at 0.1 µM was 0 to 40%.
Compound `C[C@@H](Nc1cnnc2ccc(N3CC(C)(O)C3)cc12)c1cccc(C(F)F)c1F` [Example 32, (R)-1-(4-((1-(3-(difluoromethyl)-2-fluorophenyl)ethyl)amino)cinnolin-6-yl)-3-methylazetidin-3-ol] has an inhibition at 0.1 µM of 0 to 40%.
For `C[C@@H](Nc1cnnc2ccc(N[C@H]3CCNC3)cc12)c1cccc(C(F)F)c1F` [Example 40, N4-((R)-1-(3-(difluoromethyl)-2-fluorophenyl)ethyl)-N6-((S)-pyrrolidin-3-yl)cinnolin-4,6-diamine], the inhibition at 0.1 µM was 40 to 70%.
For `C[C@@H](Nc1cnnc2ccc(N[C@H]3CCOC3)cc12)c1cccc(C(F)F)c1F` [Example 36, N4-((R)-1-(3-(difluoromethyl)-2-fluorophenyl)ethyl)-N6-((S)-tetrahydrofuran-3-yl)cinnolin-4,6-diamine], the inhibition at 0.1 µM was 0 to 40%.
`C[C@@H](Nc1cnnc2ccc(N3CC[C@H](O)C3)cc12)c1cccc(C(F)F)c1F` [Example 28, (S)-1-(4-(((R)-1-(3-(difluoromethyl)-2-fluorophenyl)ethyl)amino)cinnolin-6-yl)pyrrolidin-3-ol] gave an inhibition at 0.1 µM of 0 to 40%.
`C[C@@H](Nc1cnnc2ccc(N3C[C@@H]4C[C@H]3CO4)cc12)c1cccc(C(F)F)c1F` [Example 14, 6-((1S,4S)-2-oxa-5-azabicyclo[2.2.1]heptan-5-yl)-N-((R)-1-(3-(difluoromethyl)-2-fluorophenyl)ethyl)cinnolin-4-amine] was tested, and the inhibition at 0.1 µM was 0 to 40%.
`Cc1c(C#N)cccc1[C@@H](C)Nc1cnnc2ccc(N3CCC(C)(O)CC3)cc12` [Example 51, (R)-3-(1-((6-(4-hydroxy-4-methylpiperidin-1-yl)cinnolin-4-yl)amino)ethyl)-2-methylbenzonitrile] showed an inhibition at 0.1 µM of 0 to 40%.
For `COC1CCN(c2ccc3nncc(N[C@H](C)c4cccc(C(F)F)c4F)c3c2)CC1` [Example 22, (R)-N-(1-(3-(difluoromethyl)-2-fluorophenyl)ethyl)-6-(4-methoxypiperidin-1-yl)cinnolin-4-amine], the inhibition at 0.1 µM was 0 to 40%.
`C[C@@H](Nc1cnnc2ccc(N3CCC[C@H](O)C3)cc12)c1cccc(C(F)F)c1F` [Example 21, (S)-1-(4-(((R)-1-(3-(difluoromethyl)-2-fluorophenyl)ethyl)amino)cinnolin-6-yl)piperidin-3-ol] showed an inhibition at 0.1 µM of 40 to 70%.
Work on `C[C@@H](Nc1cnnc2ccc(N[C@@H]3CCNC3)cc12)c1cccc(C(F)F)c1F` [Example 39, N4-((R)-1-(3-(difluoromethyl)-2-fluorophenyl)ethyl)-N6-((R)-pyrrolidin-3-yl)cinnolin-4,6-diamine] yielded an inhibition at 0.1 µM of 70 to 100%.
`C[C@@H](Nc1cnnc2ccc(N3CC4CC(C3)O4)cc12)c1cccc(C(F)F)c1` [Example 42, 6-(6-oxa-3-azabicyclo[3.1.1]heptan-3-yl)-N-((R)-1-(3-(difluoromethyl)phenyl)ethyl)cinnolin-4-amine] gave an inhibition at 0.1 µM of 0 to 40%.
In the case of `C[C@@H](Nc1cnnc2ccc(N3C[C@H]4C[C@@H]3CO4)cc12)c1cccc(C(F)F)c1` [Example 44, 6-((1R,4R)-2-oxa-5-azabicyclo[2.2.1]heptan-5-yl)-N-((R)-1-(3-(difluoromethyl)phenyl)ethyl)cinnolin-4-amine], the inhibition at 0.1 µM is reported as 0 to 40%.
With `C[C@@H](Nc1cnnc2ccc(N3CCSCC3)cc12)c1cccc(C(F)F)c1F` [Example 17, (R)-N-(1-(3-(difluoromethyl)-2-fluorophenyl)ethyl)-6-thiomorpholinocinnolin-4-amine] the inhibition at 0.1 µM was 0 to 40%.
`C[C@@H](Nc1cnnc2ccc(N3CC(O)C3)cc12)c1cccc(C(F)F)c1F` [Example 30, (R)-1-(4-((1-(3-(difluoromethyl)-2-fluorophenyl)ethyl)amino)cinnolin-6-yl)azetidin-3-ol] was tested, and the inhibition at 0.1 µM was 0 to 40%.
With `C[C@@H](Nc1cnnc2ccc(C3=CCN(C(=O)C4COC4)CC3)cc12)c1cccc(C(F)F)c1F` [Example 60, (R)-(4-(4-(1-(3-(difluoromethyl)-2-fluorophenyl)ethylamino)cinnolin-6-yl)-5,6-dihydropyridin-1(2H)-yl)(oxetan-3-yl)methanone] the inhibition at 0.1 µM was 70 to 100%.
Work on `C[C@@H](Nc1cnnc2ccc(N3CCN(C(=O)C4COC4)CC3)cc12)c1cccc(C(F)F)c1F` [Example 41, (R)-(4-(4-(1-(3-(difluoromethyl)-2-fluorophenyl)ethylamino)cinnolin-6-yl)piperazin-1-yl)(oxetan-3-yl)methanone] yielded an inhibition at 0.1 µM of 70 to 100%.
For `C[C@@H](Nc1cnnc2ccc(N3CC[C@@H](O)C3)cc12)c1cccc(C(F)F)c1F` [Example 27, (R)-1-(4-(((R)-1-(3-(difluoromethyl)-2-fluorophenyl)ethyl)amino)cinnolin-6-yl)pyrrolidin-3-ol], the inhibition at 0.1 µM was 40 to 70%.
In the case of `C[C@@H](Nc1cnnc2ccc(N3C4CCC3COC4)cc12)c1cccc(C(F)F)c1F` [Example 15, 6-(3-oxa-8-azabicyclo[3.2.1]octan-8-yl)-N-((R)-1-(3-(difluoromethyl)-2-fluorophenyl)ethyl)cinnolin-4-amine], the inhibition at 0.1 µM is reported as 0 to 40%.
Work on `C[C@@H](Nc1cnnc2ccc(N3CCC(NC(=O)C4COC4)CC3)cc12)c1cccc(C(F)F)c1F` [Example 69, (R)-N-(1-(4-(1-(3-(difluoromethyl)-2-fluorophenyl)ethylamino)cinnolin-6-yl)piperidin-4-yl)oxetan-3-carboxamide] yielded an inhibition at 0.1 µM of 40 to 70%.
With `C[C@@H](Nc1cnnc2ccc(N3CC(C)(O)C3)cc12)c1cccc(C(F)F)c1` [Example 45, (R)-1-(4-((1-(3-(difluoromethyl)phenyl)ethyl)amino)cinnolin-6-yl)-3-methylazetidin-3-ol] the inhibition at 0.1 µM was 0 to 40%.
`C[C@@H](Nc1cnnc2ccc(N3CCN(C(=O)[C@H]4CCOC4)CC3)cc12)c1cccc(C(F)F)c1F` [Example 65, (4-(4-((R)-1-(3-(difluoromethyl)-2-fluorophenyl)ethylamino)cinnolin-6-yl)piperazin-1-yl)((S)-tetrahydrofuran-3-yl)methanone] was tested, and the inhibition at 0.1 µM was 40 to 70%.
Compound `C[C@@H](Nc1cnnc2ccc(N3CCN(C(=O)[C@@H]4CCOC4)CC3)cc12)c1cccc(C(F)F)c1F` [Example 64, (4-(4-((R)-1-(3-(difluoromethyl)-2-fluorophenyl)ethylamino)cinnolin-6-yl)piperazin-1-yl)((R)-tetrahydrofuran-3-yl)methanone] has an inhibition at 0.1 µM of 70 to 100%.
Work on `C[C@@H](Nc1cnnc2ccc(N3CCC(O)CC3)cc12)c1cccc(C(F)F)c1F` [Example 18, (R)-1-(4-((1-(3-(difluoromethyl)-2-fluorophenyl)ethyl)amino)cinnolin-6-yl)piperidin-4-ol] yielded an inhibition at 0.1 µM of 70 to 100%.
`C[C@@H](Nc1cnnc2ccc(N3CC4CC(C3)O4)cc12)c1cccc(C(F)(F)F)c1` [Example 47, 6-(6-oxa-3-azabicyclo[3.1.1]heptan-3-yl)-N-((R)-1-(3-(trifluoromethyl)phenyl)ethyl)cinnolin-4-amine] gave an inhibition at 0.1 µM of 0 to 40%.
In the case of `C[C@@H](Nc1cnnc2ccc(C3=CCN(C(=O)C4CC4)CC3)cc12)c1cccc(C(F)F)c1F` [Example 61, (R)-cyclopropyl(4-(4-(1-(3-(difluoromethyl)-2-fluorophenyl)ethylamino)cinnolin-6-yl)-5,6-dihydropyridin-1(2H)-yl)methanone], the inhibition at 0.1 µM is reported as 0 to 40%.
